According to US20200181117A1, “SUBSTITUTED 3-HETEROARYLOXY-1H-PYRAZOLES AND SALTS THEREOF AND THEIR USE AS HERBICIDAL ACTIVE SUBSTANCES” (BAYER CROPSCIENCE AKTIENGESELLSCHAFT, priority 2017, published 2020):

How the values were obtained:
Assay type in all cases: in vivo
Abutilon theophrasti [1] = experiment: Post-emergence herbicidal action; details: 1280 g/ha, rated visually after about 3 weeks vs untreated controls
Experimental: (§1) A. Post-Emergence Herbicidal Action and Crop Plant Compatibility Seeds of monocotyledonous and dicotyledonous weeds and crop plants were placed in sandy loam in plastic or wood-fiber pots, covered with soil and cultivated in a greenhouse under controlled growth conditions. 2 to 3 weeks after sowing, the test plants were treated at the one-leaf stage. The compounds of the invention, formulated in the form of wettable powders (WP) or as emulsion concentrates (EC), were then sprayed onto the green parts of the plants as aqueous suspension or emulsion with addition of 0.5% additive at a water application rate of 600 l/ha (converted). After the test plants had been kept in the greenhouse under optimum growth conditions for about 3 weeks, the activity of the preparations was rated visually in comparison to untreated controls. For example, 100% activity=the plants have died, 0% activity=like control plants. Tables B1 to B15 below show the effects of selected compounds of the general formula (I) according to Table I on various harmful plants and an application rate corresponding to 1280 g/ha, which were obtained by the experimental procedure mentioned above.

Alopecurus myosuroides [2] = experiment: Post-emergence herbicidal action; details: 1280 g/ha, rated visually after about 3 weeks vs untreated controls
Experimental: as §1

Amaranthus retroflexus [3] = experiment: Post-emergence herbicidal action; details: 1280 g/ha, rated visually after about 3 weeks vs untreated controls
Experimental: as §1

Echinochloa crus-galli [4] = experiment: Post-emergence herbicidal action; details: 1280 g/ha, rated visually after about 3 weeks vs untreated controls
Experimental: as §1

Pharbitis purpurea = experiment: Post-emergence herbicidal action; details: 1280 g/ha, rated visually after about 3 weeks vs untreated controls
Experimental: as §1

Setaria viridis [5] = experiment: Post-emergence herbicidal action; details: 1280 g/ha, rated visually after about 3 weeks vs untreated controls
Experimental: as §1

Viola tricolor [6] = experiment: Post-emergence herbicidal action; details: 1280 g/ha, rated visually after about 3 weeks vs untreated controls
Experimental: as §1

Abutilon theophrasti [7] = experiment: Pre-emergence herbicidal action; details: 1280 g/ha, scored visually after about 3 weeks vs untreated controls
Excerpt: (§2) Pre-Emergence Herbicidal Action and Crop Plant Compatibility Seeds of monocotyledonous and dicotyledonous weed plants and crop plants were placed in plastic or wood fiber pots and covered with soil. The compounds of the invention, formulated in the form of wettable powders (WP) or as emulsion concentrates (EC), were then applied onto the surface of the covering soil as aqueous suspension or emulsion with addition of 0.5% additive at a water application rate of 600 l/ha (converted). After the treatment, the pots were placed in a greenhouse and kept under good growth conditions for the test plants. After about 3 weeks, the effect of the preparations was scored visually in comparison with untreated controls as percentages. For example, 100% activity=the plants have died, 0% activity=like control plants. Tables C1 to C14 below show the effects of selected compounds of the general formula (I) according to Table I on various harmful plants and an application rate corresponding to 1280 g/ha, which were obtained by the experimental procedure mentioned above.

Alopecurus myosuroides [8] = experiment: Pre-emergence herbicidal action; details: 1280 g/ha, scored visually after about 3 weeks vs untreated controls
Excerpt: as §2

Amaranthus retroflexus [9] = experiment: Pre-emergence herbicidal action; details: 1280 g/ha, scored visually after about 3 weeks vs untreated controls
Excerpt: as §2

Avena fatua = experiment: Pre-emergence herbicidal action; details: 1280 g/ha, scored visually after about 3 weeks vs untreated controls
Excerpt: as §2

Echinochloa crus-galli [10] = experiment: Pre-emergence herbicidal action; details: 1280 g/ha, scored visually after about 3 weeks vs untreated controls
Excerpt: as §2

Hordeum murinum = experiment: Pre-emergence herbicidal action; details: 1280 g/ha, scored visually after about 3 weeks vs untreated controls
Excerpt: as §2

Lolium rigidum = experiment: Pre-emergence herbicidal action; details: 1280 g/ha, scored visually after about 3 weeks vs untreated controls
Excerpt: as §2

Matricaria inodora = experiment: Pre-emergence herbicidal action; details: 1280 g/ha, scored visually after about 3 weeks vs untreated controls
Excerpt: as §2

Polygonum convolvulus [11] = experiment: Pre-emergence herbicidal action; details: 1280 g/ha, scored visually after about 3 weeks vs untreated controls
Excerpt: as §2

Setaria viridis [12] = experiment: Pre-emergence herbicidal action; details: 1280 g/ha, scored visually after about 3 weeks vs untreated controls
Excerpt: as §2

Stellaria media [13] = experiment: Pre-emergence herbicidal action; details: 1280 g/ha, scored visually after about 3 weeks vs untreated controls
Excerpt: as §2

Veronica persica = experiment: Pre-emergence herbicidal action; details: 1280 g/ha, scored visually after about 3 weeks vs untreated controls
Excerpt: as §2

Viola tricolor [14] = experiment: Pre-emergence herbicidal action; details: 1280 g/ha, scored visually after about 3 weeks vs untreated controls
Excerpt: as §2

Polygonum convolvulus [15] = experiment: Post-emergence herbicidal action; details: 1280 g/ha, rated visually after about 3 weeks vs untreated controls
Experimental: as §1

Stellaria media [16] = experiment: Post-emergence herbicidal action; details: 1280 g/ha, rated visually after about 3 weeks vs untreated controls
Experimental: as §1

Row | SMILES | herbicidal activity on Abutilon theophrasti (Abutilon theophrasti [1]) [%] | herbicidal activity on Alopecurus myosuroides (Alopecurus myosuroides [2]) [%] | herbicidal activity on Amaranthus retroflexus (Amaranthus retroflexus [3]) [%] | herbicidal activity on Echinochloa crus-galli (Echinochloa crus-galli [4]) [%] | herbicidal activity on Pharbitis purpurea (Pharbitis purpurea) [%] | herbicidal activity on Viola tricolor (Viola tricolor [6]) [%] | herbicidal activity on Abutilon theophrasti (Abutilon theophrasti [7]) [%] | herbicidal activity on Alopecurus myosuroides (Alopecurus myosuroides [8]) [%] | herbicidal activity on Amaranthus retroflexus (Amaranthus retroflexus [9]) [%] | herbicidal activity on Avena fatua (Avena fatua) [%] | herbicidal activity on Echinochloa crus-galli (Echinochloa crus-galli [10]) [%] | herbicidal activity on Hordeum murinum (Hordeum murinum) [%] | herbicidal activity on Lolium rigidum (Lolium rigidum) [%] | herbicidal activity on Matricaria inodora (Matricaria inodora) [%] | herbicidal activity on Polygonum convolvulus (Polygonum convolvulus [11]) [%] | herbicidal activity on Setaria viridis (Setaria viridis [12]) [%] | herbicidal activity on Stellaria media (Stellaria media [13]) [%] | herbicidal activity on Veronica persica (Veronica persica) [%] | herbicidal activity on Viola tricolor (Viola tricolor [14]) [%] | herbicidal activity on Polygonum convolvulus (Polygonum convolvulus [15]) [%] | also measured
1 | Cc1c(Sc2cccc(Cl)c2)c(Oc2ncc(F)cn2)nn1C [Example I-091] | 80 | 80 | 80 | 80 | 80 | 100 | 100 | 100 | 100 | 90 | 100 | 100 | 90 | 100 | 100 | 100 | 100 | 100 | 100 | – | herbicidal activity on Setaria viridis (Setaria viridis [5]): 100%
2 | Cc1c(Sc2ccc(F)cc2)c(Oc2ncc(F)cn2)nn1C [Example I-090] | 100 | 100 | 100 | 80 | – | 100 | 100 | 100 | 100 | 100 | 100 | 100 | 90 | 100 | 90 | 100 | 100 | 100 | 100 | 100 | herbicidal activity on Setaria viridis (Setaria viridis [5]): 100%; herbicidal activity on Stellaria media (Stellaria media [16]): 100%
3 | COc1cnc(Oc2nn(C)c(C)c2Sc2cccc(Cl)c2)nc1 [Example I-134] | 90 | 90 | 100 | 80 | 80 | 100 | 100 | 100 | 100 | 80 | 90 | 90 | 100 | 100 | 100 | 100 | 100 | 100 | 100 | 80 | –
4 | Cc1c(Sc2ccc(F)cc2F)c(Oc2ncccn2)nn1C [Example I-044, 2-[4-(2,4-Difluorophenyl)sulfanyl-1,5-dimethylpyrazol-3-yl]oxypyrimidine] | 100 | 90 | 100 | 100 | 100 | 100 | 100 | 100 | 100 | 100 | 100 | 90 | 90 | 100 | 90 | 100 | 100 | 100 | 100 | 100 | herbicidal activity on Setaria viridis (Setaria viridis [5]): 100%; herbicidal activity on Stellaria media (Stellaria media [16]): 100%
5 | Cc1c(Sc2cccc(F)c2)c(Oc2ncccn2)nn1C [Example I-092] | 100 | 90 | 100 | 100 | 80 | 100 | 100 | 100 | 100 | 90 | 100 | 100 | 100 | 100 | 90 | 100 | 90 | 100 | 90 | 100 | herbicidal activity on Setaria viridis (Setaria viridis [5]): 100%; herbicidal activity on Stellaria media (Stellaria media [16]): 100%
6 | Fc1cnc(Oc2nn3c(c2Sc2ccc(F)cc2F)CCOCC3)nc1 [Example I-192] | 80 | 80 | – | 80 | – | 80 | 100 | 100 | 80 | – | 100 | 90 | – | 100 | 100 | 100 | 90 | 100 | 100 | 100 | –
